Data taken from patent US20230134782A1, “TREATMENT OF SKIN CONDITIONS USING HIGH KRAFFT TEMPERATURE ANIONIC SURFACTANTS” (ARCUTIS BIOTHERAPEUTICS, INC., priority 2020, published 2023).

assay: Krafft temperature determination in distilled water (water bath, dissolution and frothing on shaking); format: physicochemical; conditions: aqueous solution in distilled water: 0.012% ceteth-10 phosphate, 0.017% dicetyl phosphate, 0.014% sodium cetostearyl sulfate
Protocol: 0.0012 grams of ceteth-10 phosphate (Moravek Lot 671-144-000-A-20190821-JHO) was weighed into a 20 mL glass scintillation vial. 10.0113 grams of distilled water was added to the scintillation vial and the vial was tightly capped and placed in a water bath. […] The surfactant remained as waxy particles sedimented on the bottom of the vial. After equilibration at 53.0° C. for 435 minutes, ceteth-10 phosphate had dissolved and the sample frothed when shaken. The Krafft temperature of a 0.012% ceteth-10 phosphate aqueous solution was determined to be 53.0° C.
0.0019 grams of dicetyl phosphate (Sigma dihexadecyl phosphate lot STBH2863) was weighed into a 20 mL glass scintillation vial. 11.2262 grams of distilled water was added to the scintillation vial and the vial was tightly capped and placed in a water bath. […] After equilibration at 58.0° C. for 450 minutes, dicetyl phosphate had dissolved and the sample frothed when shaken. The Krafft temperature of a 0.017% dicetyl phosphate aqueous solution was determined to be 58.0° C. 0.0024 grams of sodium cetostearyl sulfate (BASF Lanette E Granules Lot 0021826181) was weighed into a 20 mL glass scintillation vial. 17.0763 grams of distilled water was added to the scintillation vial and the vial was tightly capped and placed in a water bath. […] The Krafft temperature of a 0.014% sodium cetostearyl sulfate aqueous solution was determined to be 41.0° C.

| Krafft Temperature [°C] | Compound |
| --- | --- |
| 53 | ceteth-10 phosphate [Ceteth - 10 phosphate] |

same assay, conditions: aqueous solution in distilled water: 0.012% ceteth-10 phosphate, 0.017% dicetyl phosphate, 0.014% sodium cetostearyl sulfate; listed as ceteth-10 phosphate

| Krafft Temperature [°C] | Compound |
| --- | --- |
| 53 | ceteth-10 phosphate [Ceteth - 10 phosphate] |

assay: not given; conditions: commonly used anionic surfactants; no source or concentration printed; cited from earlier work

| Compound | Krafft Temperature [°C] |
| --- | --- |
| CCCCCCCCCCCCCCCCOS(=O)(=O)[O-].[Na+] [Sodium cetyl sulfate] | 45.0 |
| CCCCCCCCCCCCCCCC(=O)[O-].[Na+] [Sodium palmitate] | 69 |
| CCCCCCCCCCS(=O)(=O)[O-].[Na+] [Sodium decyl sulfonate] | 22.5 |
| CCCCCCCCCCOS(=O)(=O)[O-].[Na+] [Sodium decyl sulfate] | 8.0 |
| CCCCCCCCCCCCCCCCS(=O)(=O)[O-].[Na+] [Sodium hexadecyl sulfonate] | 57.0 |
| CCCCCCCCCCCC(=O)[O-].[Na+] [Sodium laurate] | 21.5 |
| CCCCCCCCCCCCOP(=O)([O-])[O-].[Na+].[Na+] [Sodium lauryl phosphate] | 31.5 |
| Sodium laureth sulfate | <0 |
| CCCCCCCCCCCCCCOS(=O)(=O)[O-].[Na+] [Sodium myristyl sulfate] | 30.0 |
| CCCCCCCCCCCCOS(=O)(=O)[O-].[Na+] [Sodium lauryl sulfate] | 16.0 |
| CCCCCCCCCCCCCCCCCCOS(=O)(=O)[O-].[Na+] [Sodium stearyl sulfate] | 56.0 |
| CCCCCCCCCCCCCC(=O)[O-].[Na+] [Sodium myristate] | 39 |
| CCCCCCCCCCCCOS(=O)(=O)O.N [Ammonium lauryl sulfate] | 10 |
| CCCCCCCCCCCCCCS(=O)(=O)[O-].[Na+] [Sodium myristyl sulfonate, Sodium myristyl* sulfonate] | 48.0 |
| CCCCCCCCCCCCCCCCCC(=O)[O-].[Na+] [Sodium stearate] | 71 |
